According to patent publication EP1506767A1, “Use of a carbonylated amine for stimulating hairgrowth and/or for slowing down their loss” (L'OREAL, priority 2003, dated 2005):

How the values were obtained:
[1] = tested on: canaux calcium; assay: Calcium flux inhibition (IC50Ca2+) on SK-N-SH nerve cells; type: cell-based; conditions: concentration inhibiting 50 % of Ca2+ release, read-out: IC50Ca2+ Sur cellules nerveuses SK-N-SH
Excerpt: Par ailleurs, le demandeur a trouvé que les amines de formule (I) et en particulier de formule (II) sont des inhibiteurs de canaux calcium (ou de flux calcique) comme […] ou […]. Or, les inhibiteurs de canaux sont connus comme actifs dans le traitement de la chute des cheveux et sur leur effet bénéfique sur la microcirculation (confère description ci-dessus). Pour qu'une substance soit reconnue comme un inhibiteur des canaux calcium, elle doit pouvoir diminuer la concentration intracellulaire en calcium ou diminuer la liaison du calcium aux protéines intracellulaires comme par exemple la calmoduline, tel que cela est notamment décrit par Galizzi, J. P. et al., J. Biol. Chem. 1987, 262 p 6947; par Y. Okamiya et al., Eur. J. Pharmacol. 1991, 205, […]. Wagner et al., J. Neurosci. 1988, 8, […]. Lee et al., Life Sci. 1984, 35, p 721; par Schoemaker H. et Lauger S. Eur. J. Pharmacol. 1985, 111, p 273 ou encore I. J. Reynolds et al., J. Pharmacol. Exp. Ther. 1986, 237, p 731. Selon le protocole indiqué dans ces documents, […]'inhibition de flux calcique des composés (3), (4), (6) et (7), en comparaison […] sont donnés dans le tableau ci-après.

[2] = tested on: canaux calcium; assay: Calcium flux inhibition (IC50Ca2+) on HDFa skin fibroblast cells; type: cell-based; conditions: concentration inhibiting 50 % of Ca2+ release, read-out: IC50Ca2+ Sur cellules issues de fibroblastes de la peau HDFa
Excerpt: Par ailleurs, le demandeur a trouvé que les amines de formule (I) et en particulier de formule (II) sont des inhibiteurs de canaux calcium (ou de flux calcique) comme le vérapamil ou l'alvérine. Or, les inhibiteurs de canaux sont connus comme actifs dans le traitement de la chute des cheveux et sur leur effet bénéfique sur la microcirculation (confère description ci-dessus).
Pour qu'une substance soit reconnue comme un inhibiteur des canaux calcium, elle doit pouvoir diminuer la concentration intracellulaire en calcium ou diminuer la liaison du calcium aux protéines intracellulaires comme par exemple la calmoduline, tel que cela est notamment décrit par Galizzi, J. P. et al., J. Biol. Chem. 1987, 262 p 6947; par Y. Okamiya et al., Eur. J. Pharmacol. 1991, 205, p 49; par J. A. Wagner et al., J. Neurosci. 1988, 8, p 3354; par H. R. Lee et al., Life Sci. 1984, 35, p 721; par Schoemaker H. et Lauger S. Eur. J. Pharmacol. 1985, 111, p 273 ou encore I. J. Reynolds et al., J. Pharmacol. Exp. Ther. 1986, 237, p 731.
Selon le protocole indiqué dans ces documents, le demandeur a déterminé l'IC50Ca2+ d'inhibition de flux calcique des composés (3), (4), (6) et (7), en comparaison avec le vérapamil; les résultats sont donnés dans le tableau ci-après. IC50Ca2+ représente la concentration inhibitrice de 50 % de libération de Ca^2+.

[3] = tested on: coculture nerfs/muscles (cellules musculaires striées humaines); assay: Inhibition of muscle fibre contractions in a nerve/muscle coculture model; type: cell-based, humaines; rat; conditions: 10, 50, 100 µM; 60 s incubation; three muscle fibres; triplicate
Experimental: La molécule de l'exemple 1 a été testée à différentes concentrations, à savoir 10, 50 et 100 µM, sur un modèle de coculture nerfs/muscles, qui permet de recréer un arc moteur en innervant des cellules musculaires striées humaines avec des explants de moelle épinière et de ganglions rachidiens d'embryons de rat.
Ce test est prédictif d'un effet inhibiteur des contractions des fibres musculaires.
Des cellules musculaires humaines, issues de prélèvements de muscles striés de donneurs sains, sont ensemencées dans des puits de 1,8 cm^2 de section (boîtes de culture de 24 puits). Après 10 jours de culture, ces cellules forment une monocouche et fusionnent. A ce stade, des explants de moelle épinière d'embryons de rat de 13 jours contenant les ganglions rachidiens sont déposés sur la culture.
La croissance des neurites est visible en dehors de l'explant de moelle épinière après un jour de culture. Les premières contractions des fibres musculaires sont observées après 5 à 6 jours de coculture et après 3 semaines, toutes les fibres musculaires au voisinage des explants se contractent.
Les cocultures sont utilisées après 21 jours, quand les fibres musculaires sont striées et possèdent des jonctions neuromusculaires différenciées matures. […]

Structure (SMILES)	IC50 [1] [µM]	IC50 [2] [µM]	contractions des fibres musculaires [3]
CCN(CCCc1ccccc1)CCCc1ccccc1 [alvérine, reference compound]	30		
CCCCCC(=O)CCN(CCCc1ccccc1)CCC(=O)CCCCC [compound 3]	7	18	
CCCCCC(=O)CCN(CC)CCCc1ccccc1 [compound 4, 1-(N-éthyl, (3-phényl-)propylamino) octan-3-one]	18	30	bloque les contractions
CCCCCC(=O)CCN(CC)CCc1ccc(OC)c(OC)c1 [compound 6]	32	22	
CCCCCC(=O)CCN(CC)Cc1ccccc1 [compound 7]	17	18	
COc1ccc([C@@H]2Sc3ccccc3N(CCN(C)C)C(=O)[C@@H]2OC(C)=O)cc1 [diltiazem, reference compound]	> 45		
COC(=O)C1=C(C)NC(C)=C(C(=O)OC)C1c1ccccc1[N+](=O)[O-] [nifédipine, reference compound]	29		
